Data: patent publication US20200289525A1, “Methods of Increasing Microbial Diversity of a Skin Microbiota” (The Procter & Gamble Company, priority 2019, published 2020)
Entries after “also recorded” stand apart in the source; their conditions may differ. Where two headings read alike, the source gives them in different places.

What was measured:
[1] = test system: skin microbiota; conditions: atopic dermatitis lesion area, baseline vs four weeks of daily washes
Experimental: The effect of zinc pyrithione body wash on skin microbiota of subjects with atopic dermatitis with lesions was assessed using a standard leg wash assay. Subjects completed a 4-week period of daily leg washes with zinc pyrithione (BCP2ZPT), a B7U bar soap, or a vehicle control (BCP2). Samples were collected at baseline (study onset) and after 4 weeks of leg washings.
Another study was conducted to specifically assess the effect of a zinc ionophore, i.e., zinc pyrithione, on the skin microbiota diversity of atopic dermatitis lesions using standard body wash protocol well-known in the art. The washes were carried out on a daily basis over a four-week period and 16S rDNA sequencing was used to identify bacterial genera while qPCR amplification was used to quantify the abundance of the genera. Measurements were taken at baseline and after the four-week wash period. Controls involved subjects washing with B7U bar soap or the BCP2 vehicle alone. […]

[2] = test system: skin microbiota; assay: Four-week daily wash of atopic dermatitis without lesions, 16S rDNA sequencing and qPCR (FIG. 6); type: in vivo, human; conditions: baseline vs four weeks of daily washing, p=0.027, FDR>0.05
Experimental: A study mirroring the study described in the brief description of FIG. 5 was conducted with subjects having atopic dermatitis without lesions substituted for subjects with atopic dermatitis with lesions. The relative abundance of Staphylococcus was measured using 16S rDNA sequencing and qPCR quantification. Subjects performed the standard leg wash using B7U bar soap, vehicle only (BCP2), or zinc pyrithione in BCP2 vehicle (BCP2ZPT). Samples were taken at the onset of the study to establish a baseline and after four weeks of leg washings.
A related experiment assessing the treatment effects of a zinc ionophore on skin microbiota diversity in subjects with atopic dermatitis without lesions was performed to assess the effects of the therapeutic in this context. The experimental design involved daily body washes of subjects with atopic dermatitis lacking visible lesions over a four-week period, with subjects engaging in daily washing with either B7U bar soap, vehicle alone (BCP2 base), or BCP2ZPT (which included 0.5% zinc pyrithione). Skin samples were again analyzed for microbiota composition by 16S rDNA sequencing with qPCR to quantify the abundances of the bacterial genera in the skin microbiotas.

[3] = test system: skin microbiota; conditions: four-week wash period
Source text: Only qualified subjects with atopic dermatitis received treatment products during the treatment phase. These qualified subjects were each divided into three treatment groups. […]
Samples of microbiotas from skin with atopic dermatitis were subjected to sequence analyses to identify the various genera present on the skin and to measure relative abundances. In a first sequencing round, read lengths of 150-800 bp were obtained using the Closed OTU picking method. […] The second sequencing round yielded read lengths of 250-600 bp using the Cosed OTU picking method. […] The third sequencing round involved read lengths of 250-600 bp being obtained using the Cosed OTU picking method. […]
A study was conducted of the effect on skin microbiota of single washes or four-week wash periods of either a 0.5% zinc pyrithione body wash, a vehicle body wash, or a B7U bar soap wash. The relative abundances of 11 identified bacterial genera were monitored, along with a category of unclassified microbes. […]

[4] = test system: skin microbiota; conditions: skin having atopic dermatitis, in a body wash

**Q.** With `[O-]n1ccccc1=S.[O-]n1ccccc1=S.[Zn+2]` [zinc pyrithione, zinc salt of 1-hydroxy-2-pyridinethione] as the compound, how does the “abundance of Kocuria” value [1] read?
**A.** increased

**Q.** And the “abundance of Staphylococcus” value [2]?
**A.** significantly reduced; also recorded: selective reduction

**Q.** What about the “relative abundance of Staphylococcus” value ([3]; atopic dermatitis patients not exhibiting lesions) of the same compound?
**A.** selectively reduces

**Q.** What about the “relative abundance of Staphylococcus” value ([3]; subjects with atopic dermatitis lesions) of the same compound?
**A.** selectively reduces

**Q.** What about the total bacterial level [4] of the same compound?
**A.** lowers
